Data taken from patent publication US4731109A, “Herbicidal 2-haloacetanilides” (Monsanto Company, priority 1982, dated 1988).
Like-named read-outs stand apart in the source and are kept apart here.

Experiments:
Type in all cases: in vivo
[1] = system: common purslane; experiment: Greenhouse pre-emergence GR15/GR85 selectivity test; details: Table XV
How it was run: (§1)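 Pre-emergence soil-incorporation test: seeded pans were covered with topsoil mixed with active ingredient (in solvent or as wettable powder), overhead-irrigated (0.64 cm) or not, then subirrigated. Plants were scored about 2-3 weeks after treatment. GR15/GR85 rates are in kg/ha, and selectivity factor is crop GR15 divided by weed GR85.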

[2] = system: common ragweed; experiment: as above; details: Table XV; for selectivity factor (GR15/GR85): in rape
How it was run: as §1

[3] = system: prickly sida; experiment: as above; details: Table XV
How it was run: as §1

[4] = system: redroot pigweed; experiment: as above; details: Table XV; for selectivity factor (GR15/GR85): in rape
How it was run: as §1

[5] = system: Barnyardgrass; experiment: Resistance to leaching and resulting herbicidal efficacy; details: for inhibition at 140 g/ha / inhibition at 560 g/ha / inhibition at 2200 g/ha: Echinochloa crus-galli, read-out: Percent Inhibition
Experimental: Laboratory tests were conducted to determine the resistance of herbicides according to this invention to leaching into the soil and resulting herbicidal efficacy. […] The pots containing the treated soil were subjected to leaching by placing on a turntable which rotated under two nozzle tips of a water container calibrated to deliver one inch (2.5 cm) of water per hour simulating rainfall. Leaching rates were adjusted by varying the amount of time on the turntable. Water was delivered to the soil in the pots and allowed to percolate through the filter paper and drainage holes. The pots were then allowed to sit for three days at ambient room temperature. The treated soil in the pots was then removed, crumbled and placed as a surface layer on top of other pots containing the above soils seeded with barnyardgrass seeds. The pots were then placed on greenhouse benches, sub-irrigated and allowed to grow for 2-3 weeks. Visual ratings of percent growth inhibition compared to control (untreated) pots and fresh weights for barnyardgrass were recorded; the data from the control represents six replications and that for the test compounds three replications; test data are shown in Table XVIII.

[6] = Drummer silt clay, 0.14 Kg/Ha, rain 0 cm
[7] = Drummer silt clay, 0.14 Kg/Ha, rain 1.27 cm
[8] = Drummer silt clay, 0.14 Kg/Ha, rain 5.08 cm
[9] = Drummer silt clay, 0.56 Kg/Ha, rain 0 cm
[10] = Drummer silt clay, 0.56 Kg/Ha, rain 1.27 cm
[11] = Drummer silt clay, 0.56 Kg/Ha, rain 5.08 cm
[12] = Drummer silt clay, 0.56 Kg/Ha, rain 10.16 cm
[13] = Drummer silt clay, 2.2 Kg/Ha, rain 0 cm
[14] = Drummer silt clay, 2.2 Kg/Ha, rain 1.27 cm
[15] = Drummer silt clay, 2.2 Kg/Ha, rain 5.08 cm
[16] = Drummer silt clay, 2.2 Kg/Ha, rain 10.16 cm
[17] = Ray silt loam, 0.14 Kg/Ha, rain 0 cm
[18] = Ray silt loam, 0.14 Kg/Ha, rain 1.27 cm
[19] = Ray silt loam, 0.14 Kg/Ha, rain 5.08 cm
[20] = Ray silt loam, 0.14 Kg/Ha, rain 10.61 cm
[21] = Ray silt loam, 0.56 Kg/Ha, rain 0 cm
[22] = Ray silt loam, 0.56 Kg/Ha, rain 1.27 cm
[23] = Ray silt loam, 0.56 Kg/Ha, rain 5.08 cm
[24] = Ray silt loam, 0.56 Kg/Ha, rain 10.16 cm
[25] = Ray silt loam, 2.2 Kg/Ha, rain 0 cm
[26] = Ray silt loam, 2.2 Kg/Ha, rain 1.27 cm
[27] = Ray silt loam, 2.2 Kg/Ha, rain 5.08 cm
[28] = Ray silt loam, 2.2 Kg/Ha, rain 10.16 cm
[29] = Drummer silt clay, 0.14 Kg/Ha, rain 10.16 cm
[30] = Ray silt loam, 0.14 Kg/Ha, rain 10.16 cm

Cc1cccc(C(F)(F)F)c1N(COC(C)C)C(=O)CCl [Example 4, N--(isopropoxymethyl)-2'-trifluoromethyl-6'-methyl-2-chloroacetanilide]
GR85 Rate [1]: > 1.12 Kg/Ha
GR85 Rate [2]: 1.03 Kg/Ha
selectivity factor (GR15/GR85) [2]: > 1.1
GR85 Rate [3]: > 1.12 Kg/Ha
GR85 Rate [4]: 0.50 Kg/Ha
selectivity factor (GR15/GR85) [4]: > 2.2
inhibition at 140 g/ha [5, 6]: 70%
inhibition at 140 g/ha [5, 7]: 96%
inhibition at 140 g/ha [5, 8]: 85%
inhibition at 560 g/ha [5, 9]: 100%
inhibition at 560 g/ha [5, 10]: 100%
inhibition at 560 g/ha [5, 11]: 100%
inhibition at 560 g/ha [5, 12]: 96%
inhibition at 2200 g/ha [5, 13]: 100%
inhibition at 2200 g/ha [5, 14]: 100%
inhibition at 2200 g/ha [5, 15]: 100%
inhibition at 2200 g/ha [5, 16]: 100%
inhibition at 140 g/ha [5, 17]: 98%
inhibition at 140 g/ha [5, 18]: 90%
inhibition at 140 g/ha [5, 19]: 38%
inhibition at 140 g/ha [5, 20]: 12%
inhibition at 560 g/ha [5, 21]: 99%
inhibition at 560 g/ha [5, 22]: 100%
inhibition at 560 g/ha [5, 23]: 89%
inhibition at 560 g/ha [5, 24]: 17%
inhibition at 2200 g/ha [5, 25]: 100%
inhibition at 2200 g/ha [5, 26]: 100%
inhibition at 2200 g/ha [5, 27]: 92%
inhibition at 2200 g/ha [5, 28]: 71%
inhibition at 140 g/ha ([5]; Drummer silt clay, 0.14 Kg/Ha, rain 10.61 cm): 47%
Fresh Weight [5, 17]: 0.01 Grams
Fresh Weight [5, 18]: 0.41 Grams
Fresh Weight [5, 19]: 2.77 Grams
Fresh Weight [5, 20]: 3.62 Grams
Fresh Weight [5, 21]: 0.02 Grams
Fresh Weight [5, 22]: 0 Grams
Fresh Weight [5, 23]: 0.44 Grams
Fresh Weight [5, 24]: 3.41 Grams
Fresh Weight [5, 25]: 0 Grams
Fresh Weight [5, 26]: 0 Grams
Fresh Weight [5, 27]: 0.31 Grams
Fresh Weight [5, 28]: 1.18 Grams

Cc1cccc(C(F)(F)F)c1N(COCC(C)C)C(=O)CCl [Example 5, N--(isobutoxymethyl)-2'-trifluoromethyl-6'-methyl-2-chloroacetanilide]
GR85 Rate [1]: > 1.12 Kg/Ha
GR85 Rate [2]: 0.98 Kg/Ha
selectivity factor (GR15/GR85) [2]: > 1.1
GR85 Rate [3]: > 1.12 Kg/Ha
GR85 Rate [4]: 0.50 Kg/Ha
selectivity factor (GR15/GR85) [4]: > 2.2
inhibition at 140 g/ha [5, 6]: 12%
inhibition at 140 g/ha [5, 7]: 26%
inhibition at 140 g/ha [5, 8]: 20%
inhibition at 140 g/ha [5, 29]: 12%
inhibition at 560 g/ha [5, 9]: 50%
inhibition at 560 g/ha [5, 10]: 100%
inhibition at 560 g/ha [5, 11]: 93%
inhibition at 560 g/ha [5, 12]: 84%
inhibition at 2200 g/ha [5, 13]: 100%
inhibition at 2200 g/ha [5, 14]: 100%
inhibition at 2200 g/ha [5, 15]: 100%
inhibition at 2200 g/ha [5, 16]: 100%
inhibition at 140 g/ha [5, 17]: 84%
inhibition at 140 g/ha [5, 18]: 90%
inhibition at 140 g/ha [5, 19]: 58%
inhibition at 560 g/ha [5, 21]: 99%
inhibition at 560 g/ha [5, 22]: 99%
inhibition at 560 g/ha [5, 23]: 90%
inhibition at 560 g/ha [5, 24]: 72%
inhibition at 2200 g/ha [5, 25]: 100%
inhibition at 2200 g/ha [5, 26]: 100%
inhibition at 2200 g/ha [5, 27]: 99%
inhibition at 2200 g/ha [5, 28]: 84%
inhibition at 140 g/ha [5, 30]: 29%
Fresh Weight [5, 17]: 0.66 Grams
Fresh Weight [5, 18]: 0.43 Grams
Fresh Weight [5, 19]: 1.72 Grams
Fresh Weight [5, 30]: 2.92 Grams
Fresh Weight [5, 21]: 0.04 Grams
Fresh Weight [5, 22]: 0.02 Grams
Fresh Weight [5, 23]: 0.41 Grams
Fresh Weight [5, 24]: 1.17 Grams
Fresh Weight [5, 25]: 0 Grams
Fresh Weight [5, 26]: 0 Grams
Fresh Weight [5, 27]: 0.03 Grams
Fresh Weight [5, 28]: 0.64 Grams

CCCOCN(C(=O)CCl)c1c(CC)cccc1C(F)(F)F [Example 10, N--(n-propoxymethyl)-2'-trifluoromethyl-6'-ethyl-2-chloroacetanilide]
GR85 Rate [1]: > 1.12 Kg/Ha
GR85 Rate [2]: > 1.12 Kg/Ha
GR85 Rate [3]: > 1.12 Kg/Ha
GR85 Rate [4]: 0.70 Kg/Ha
selectivity factor (GR15/GR85) [4]: > 1.6
inhibition at 140 g/ha [5, 6]: 90%
inhibition at 140 g/ha [5, 7]: 85%
inhibition at 140 g/ha [5, 8]: 80%
inhibition at 140 g/ha [5, 29]: 70%
inhibition at 560 g/ha [5, 9]: 99%
inhibition at 560 g/ha [5, 10]: 98%
inhibition at 560 g/ha [5, 11]: 98%
inhibition at 560 g/ha [5, 12]: 98%
inhibition at 2200 g/ha [5, 13]: 100%
inhibition at 2200 g/ha [5, 14]: 100%
inhibition at 2200 g/ha [5, 15]: 99%
inhibition at 2200 g/ha [5, 16]: 98%
inhibition at 140 g/ha [5, 17]: 100%
inhibition at 140 g/ha [5, 18]: 100%
inhibition at 140 g/ha [5, 19]: 98%
inhibition at 560 g/ha [5, 21]: 100%
inhibition at 560 g/ha [5, 22]: 100%
inhibition at 560 g/ha [5, 23]: 100%
inhibition at 560 g/ha [5, 24]: 90%
inhibition at 2200 g/ha [5, 26]: 100%
inhibition at 2200 g/ha [5, 27]: 100%
inhibition at 2200 g/ha [5, 28]: 98%
inhibition at 140 g/ha [5, 30]: 65%
